Source: patent US20120276064A1, “METHODS AND COMPOSITIONS FOR REJUVENATION AND EXPANSION OF STEM CELLS” (priority 2011, published 2012)

Assays:
[1] = tested on: old MuSCs transplanted into notexin-injured old muscle; assay: Syngeneic transplantation of cultured old MuSC progeny into notexin-injured old C57BL/6 muscles, engraftment; format: in vivo, mouse
Method: MuSC transplantation. MuSCs were transplanted immediately following FACS isolation or after collection from cell culture directly into the tibialis anterior muscle of recipient mice as previously described. Cells from GFP/Luciferase or Myf5^nLacZl+/Luciferase mice were transplanted into gender-matched, hindlimb-irradiated NOD/SCID (Jackson) mice. NOD/SCID (2-4 months of age, median 2 months) mice were anesthetized with ketamine (2.4 mg per mouse) and xylazine (240 μg per mouse) by intraperitoneal injection then were irradiated by a single dose of 18 Gy administered to the hindlimbs, with the rest of the body shielded in a lead jig. Transplantation was performed within three days post-irradiation. […] Freshly isolated or cultured cells were counted by hemocytometer and resuspended at desired cell concentrations in PBS with 2.5% goat serum and 1 mM EDTA. Cells were collected from hydrogel cultures by incubation with 0.5% trypsin in PBS for 2 min at 37° C. and counted using a hemocytometer. […]
Bioluminescence imaging. […] Digital images were recorded and analyzed using Living Image software (Caliper LifeSciences). Images were analyzed with a consistent region-of-interest (ROI) placed over each hindlimb to calculate a bioluminescence signal. […]

[2] = tested on: p21, Myogenin, Pax7 transcripts in MuSCs; assay: Quantitative real-time PCR gene expression in hydrogel-cultured MuSCs; format: cell-based, mouse; settings: old MuSCs, soft hydrogel, 10 μM, one week
Method: MuSC culture and treatment. Following isolation, MuSCs were pelleted and resuspended into myogenic cell culture medium containing DMEM/F10 (50:50), 15% FBS, 2.5 ng/ml bFGF, and 1% penicillin/streptomycin. MuSCs were seeded at 1000 cells per well (24-well plate size wells, 2.0 cm^2 surface area) on laminin-tethered hydrogels of either 12 kPa (soft) or ˜10^6 kPa (rigid) rigidities. Cells were maintained at 37° C. in 5% CO2. Media was changed daily. For proliferation and p38 inhibition studies, the following ligands/inhibitors were supplemented in the myogenic medium and maintained consistently through the experiment: 25 ng/ml Wnt7a (R&D Systems, Minneapolis, Minn.), 25 ng/ml Jagged1-Fc (R&D Systems, Minneapolis, Minn.), 10 nM tautomycetin (PP1 inhibitor; Tocris Bioscience, Ellisville, Mo.), 10 μM SB202190 or 10 μM SB203580 (p38 inhibitors; EMD Chemicals, Gibbstown, N.J.), 1 μM SB431542 (ALK4/5/7 inhibitor; Tocris Bioscience), or 0.1% DMSO carrier control. All MuSC cell culture assays and transplantations were performed after one week of culture unless noted otherwise.
Quantitative real-time PCR. RNA was isolated from freshly isolated and cultured cells using the RNeasy Micro kit (Qiagen, Valencia, Calif.). Total RNA from each sample was reverse transcribed using the High Capacity cDNA RT kit (Applied Biosystems, Carlsbad, Calif.). cDNA was subjected to real-time PCR using a SYBR Green PCR Master Mix (Applied Biosystems). Real-time PCR was performed using an ABI 7900HT Real Time PCR system and software (Applied Biosystems). Samples were cycled at 95° C. for 10 min and then 40 cycles of 95° C. for 15 sec and 60° C. for 1 min. To quantify relative transcript levels, the 2^−ΔΔCt method was used, and freshly isolated young MuSCs were used as reference value (plotted as 1 in all graphs). Gapdh was used as a normalizing gene. Primer sequences for Gapdh, p21, myogenin, and Pax7 were obtained from literature or using NIH Primer3.

[3] = tested on: tibialis anterior muscle of notexin-injured old mice; assay: In vivo force measurements after transplantation of cultured old MuSC progeny; parameters: species or system mouse; settings: injured old muscles transplanted with progeny of SB-treated old MuSCs; two months post-injury

Oc1ccc(-c2nc(-c3ccncc3)c(-c3ccc(F)cc3)[nH]2)cc1 [SB202190]
Contribution to myofibers (histology) ([1]; progeny of 100 SB-treated old MuSCs, old recipient muscle, two months after transplantation): substantial contribution to myofibers | Engraftment frequency in aged syngeneic recipient muscle ([1]; progeny of 100 old MuSCs cultured with 10 μM SB, notexin-injured old C57BL/6 mice, one month): 88% | Transcription of the MuSC transcription factor Pax7 [2]: increased | Transcription of the cell cycle inhibitor p21 [2]: decreased | Transcription of the commitment marker Myogenin [2]: decreased | Specific tetanus force versus pre-injury levels [3]: restored | Specific twitch force versus pre-injury levels [3]: exceeded
